Columns and labels:
[1] = biological target: T1, Mitogen-activated protein kinase 1 (Homo sapiens, UniProt P28482); experiment: The assay was carried out in 20 mM HEPES [pH 7.5], 5 mM MgCl2, 1 mM DTT, 0.01% Tween-20, 0.05% BSA using 0.02 nM ERK2, 400 nM ERKtide peptide and 35 uM ATP (all concentrations are final in the reaction) in a total volume of 10.25 uL. A 16-point, half-log dilution series of compounds at 41x final concentration was used for generating IC50 curves. Compound dilution series were prepared in 100% DMSO. ERK2 was preincubated with compounds for 30 minutes at ambient temperature. Reaction was initiated by addition of a substrate cocktail of ERKtide peptide and ATP and was allowed to proceed for 4 hours at ambient temperature. Reaction was terminated by addition of 10 uL of a 2x stop buffer consisting of 100 mM Tris-Cl [pH 7.5], 25 mM EDTA, 0.01% Tween 20, 20 ug/mL of AlphaScreen Protein A Acceptor Beads, 20 ug/mL of Streptavidin Donor Beads (PerkinElmer, Waltham, Mass.), and 1:1000 dilution phospho-EGF Receptor (Thr669) antibody (Cat #8808, Cell Signaling Technology, Danvers, Mass.). Terminated reactions were read, after overnight incubation in the dark, on an EnVision Multilabel Plate Reader (PerkinElmer, Waltham, Mass.), with excitation and emission wavelengths set to 680 nm and 570 nm, respectively. IC50 values were determined using a four-parameter fit.
[2] = biological target: T1, Mitogen-activated protein kinase 1; experiment: (§1) Kinase Assay (New): Compound potency against activated ERK2 is determined using a kinase assay that measures ERK2-catalyzed phosphorylation of biotinylated ERKtide peptide substrate ([Biotin]-AHA-KRELVEPLTPSGEAPNQALLR-[NH2], the peptide sequence derived from EGF receptor: SEQ ID NO:1). The assay is carried out in 50 mM HEPES [pH 7.5], 5 mM MgCl2, 1 mM DTT, 0.01% Tween-20, 0.05% BSA using 0.25 nM ERK2, 200 nM ERKtide peptide and 35 uM ATP (all concentrations are final in the reaction) in a total volume of 10.25 uL. A 16-point, half-log dilution series of compounds at 41x final concentration is used for generating IC50 curves. Compound dilution series are prepared in 100% DMSO. ERK2 is preincubated with compounds for 30 minutes at ambient temperature. Reaction is initiated by addition of a substrate cocktail of ERKtide peptide and ATP and is allowed to proceed for 2-3 hours at ambient temperature. Reaction is terminated by addition of 10 uL of a 2x stop buffer consisting of 100 mM Tris-Cl [pH 7.5], 25 mM EDTA, 0.01% Tween 20, 10 ug/mL of AlphaScreen Protein A Acceptor Beads, 10 ug/mL of Streptavidin Donor Beads (PerkinElmer, Waltham, Mass.), and 1.4 ug/mL phospho-EGF Receptor (Thr669) antibody (Cat #3056, Cell Signaling Technology, Danvers, Mass.). Terminated reactions are read, after overnight incubation in the dark, on an EnVision Multilabel Plate Reader (PerkinElmer, Waltham, Mass.), with excitation and emission wavelengths set to 680 nm and 570 nm, respectively. IC50 values are determined using a four-parameter fit.
[3] = biological target: T1, Mitogen-activated protein kinase 1; experiment: as §1, with “AlphaScreen Assay:” for “Kinase Assay (New):”, “Mass.).” for “Mass.). Terminated reactions are read, after overnight incubation in the dark, on an EnVision Multilabel Plate Reader (PerkinElmer, Waltham, Mass.), with excitation and emission wavelengths set to 680 nm and 570 nm, respectively. IC50 values are determined using a four-parameter fit.”

T1 sequence (P28482 whole entry): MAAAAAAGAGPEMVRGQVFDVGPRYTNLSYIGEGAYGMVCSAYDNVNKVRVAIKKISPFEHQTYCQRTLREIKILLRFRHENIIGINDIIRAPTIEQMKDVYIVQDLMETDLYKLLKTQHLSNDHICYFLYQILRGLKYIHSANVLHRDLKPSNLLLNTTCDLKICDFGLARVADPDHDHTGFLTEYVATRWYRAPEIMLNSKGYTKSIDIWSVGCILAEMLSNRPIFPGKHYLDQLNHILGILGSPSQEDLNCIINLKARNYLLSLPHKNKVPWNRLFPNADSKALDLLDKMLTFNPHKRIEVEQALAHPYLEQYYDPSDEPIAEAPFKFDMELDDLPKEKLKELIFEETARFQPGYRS

For `Nc1ncc([C@H]2CC[C@H](O)CC2)nc1-c1ccc(C(=O)NCc2cccc(Cl)n2)c(F)c1`, which IC50 [1] is on record?
The IC50 was 21 nM.

With `CC(C)n1cc(-c2cnc(N)c(-c3ccc(C(=O)N[C@H](CO)c4ccccc4)c(F)c3)c2)cn1` as the compound, how does the IC50 [2] read?
Its IC50 is 2.06 nM.

`Cc1nn(C)cc1-c1cnc(N)c(-c2ccc(C(=O)N[C@H](CO)c3ccccc3)c(F)c2)c1` was tested. Which IC50 [2] did it give?
The IC50 was 1.41 nM.

For `Cc1nn(C(F)F)cc1-c1cnc(N)c(-c2ccc(C(=O)N[C@H](CO)c3cccc(Cl)c3)c(F)c2)c1`, which IC50 [1] is on record?
The IC50 was 0.0245 nM.

`Cn1cc(-c2cnc(N)c(-c3ccc(C(=O)N[C@H](CO)c4ccccc4)c(F)c3)c2F)cn1` was tested. Which IC50 [2] did it give?
Its IC50 is 9.77 nM.

For `Cn1ccc(-c2cnc(N)c(-c3ccc(C(=O)N[C@H](CO)c4cccc(Cl)c4)c(F)c3)c2)n1`, which IC50 [1] is on record?
The IC50 was 0.0937 nM.

For `Nc1ncc(C2CCOCC2)nc1-c1ccc(C(=O)N[C@H](CO)C2CCCCC2)c(F)c1`, which IC50 [2] is on record?
The IC50 was 26.5 nM.

What does the source list for `Nc1cc(-c2cc(C3CCOCC3)cnc2N)ccc1C(=O)N[C@H](CO)c1ccccc1`?
IC50 [1]: 3.04 nM; IC50 [3]: 5.24 nM

For `Nc1ncc([C@H]2CC[C@@H](O)CC2)nc1-c1ccc(C(=O)NCc2cccc(Cl)n2)c(F)c1`, which IC50 [1] is on record?
Its IC50 is 159 nM.

For `CS(=O)(=O)[C@H]1CC[C@H](c2cnc(N)c(-c3ccc(C(=O)NCc4ccccc4)c(F)c3)n2)CC1`, which IC50 [2] is on record?
The IC50 was 64.4 nM.

And the IC50 [1]?
The IC50 was 29.7 nM.

What does the source list for `Nc1ncc(N2CCOCC2)cc1-c1ccc(C(=O)N[C@H](CO)c2ccccc2)c(F)c1`?
IC50 [1]: 1.31 nM; IC50 [3]: 20.6 nM
